Assay: Study 2 hematology
Format: in vivo, human
Details: for Basophils (absolute) % Change / Basophils, % - % Change / Eosinophils (absolute) % Change / Eosinophils, % - % Change / Hematocrit % Change / Hemoglobin % Change / Lymphocytes (absolute) % Change / Lymphocytes, % - % Change / MCH % Change / MCHC % Change / MCV % Change / Monocytes (absolute) % Change / Monocytes, % - % Change / Neutrophils (absolute) % Change / Neutrophils, % - % Change / Platelets % Change / RBC % Change / RDW % Change / WBC % Change: Before to After
Protocol: Study 2 design. Study 2 was conducted similar to study 1 with the following modifications. In study 2, plasma levels of HMB were measured for 1440 min (24 h) and total urine collection was also performed for measurement of urinary HMB excretion during this period. After the 180 min blood sample, the subjects were allowed to leave the laboratory and were instructed to return to the laboratory for additional blood samples at 360, 720, and 1440 min after the ingestion of the supplement. As in study 1, each subject took each of the treatments with at least a one week washout period between treatments. Samples were again stored frozen at −70° C. for analysis of plasma and urinary HMB concentrations. Pre-ingestion, 180 min and 1440 min blood samples were again assayed for the same measurements already for study 1. Subjects were provided with a standardized lunch after the 180 min blood sampling and instructed to eat this at approximately 240 min post ingestion. Following the 720 min blood sample, subjects were instructed to eat a normal evening meal before 10 pm. Subjects reported back to the laboratory the following morning for the fasted 1440 min blood sample. A urine collection container was provided and subjects collected all urine produced during the experimental 24 h experimental period. The urine was stored refrigerated when not being collected. Urine volumes were measured and samples of the total urine collection were taken and stored frozen at −70° C. until analyzed for HMB.
The data were analyzed using a crossover design with Proc GLM in SAS. (45) For the timed sampling of plasma HMB a repeated measures polynomial model was used. The model included subject, order, and treatment main effects and time by treatment interaction where appropriate. For other parameters Proc GLM was also used with subject, order, and treatment main effects and the p values are reported for the treatment main effect. Statistical significance was determined for p<0.05 and a trend was determined for 0.05<p<0.10.

CC(C)(O)CC(=O)O [HMB-Acid Gel Sublingual, 3-hydroxy-3-methylbutyric acid]
Basophils (absolute) (After (24 h)): 0.04 ± 0.0 ×10^3/μL
Basophils, % (After (24 h)): 0.4 ± 0.2%
Eosinophils (absolute) (After (24 h)): 0.2 ± 0.03 ×10^3/μL
Eosinophils, % (After (24 h)): 3.3 ± 0.5%
Hematocrit (After (24 h)): 38.6 ± 1.3%
Hemoglobin (After (24 h)): 13.2 ± 0.5 g/dL
Lymphocytes (absolute) (After (24 h)): 3.1 ± 0.3 ×10^3/μL
Lymphocytes, % (After (24 h)): 45.6 ± 3.4%
MCH (After (24 h)): 30.5 ± 0.5 pg
MCHC (After (24 h)): 34.5 ± 0.2 g/dL
MCV (After (24 h)): 89.3 ± 1.4 fL
Monocytes (absolute) (After (24 h)): 0.6 ± 0.05 ×10^3/μL
Monocytes, % (After (24 h)): 8.4 ± 0.9%
Neutrophils (absolute) (After (24 h)): 2.9 ± 0.3 ×10^3/μL
Neutrophils, % (After (24 h)): 42.4 ± 3.5%
Platelets (After (24 h)): 244.3 ± 17.5 ×10^3/μL
RBC (After (24 h)): 4.3 ± 0.1 ×10^6/µL
RDW (After (24 h)): 13.4 ± 0.2%
WBC (After (24 h)): 6.8 ± 0.3 ×10^3/μL
Basophils (absolute) (Before): 0.06 ± 0.02 ×10^3/μL
Basophils, % (Before): 0.6 ± 0.2%
Eosinophils (absolute) (Before): 0.2 ± 0.04 ×10^3/μL
Eosinophils, % (Before): 2.5 ± 0.5%
Hematocrit (Before): 37.5 ± 1.4%
Hemoglobin (Before): 13.2 ± 0.5 g/dL
Lymphocytes (absolute) (Before): 3.0 ± 0.3 ×10^3/μL
Lymphocytes, % (Before): 43.1 ± 4.2%
MCH (Before): 30.4 ± 0.5 pg
MCHC (Before): 34.5 ± 0.2 g/dL
MCV (Before): 88.4 ± 1.5 fL
Monocytes (absolute) (Before): 0.6 ± 0.05 ×10^3/μL
Monocytes, % (Before): 8.3 ± 1.0%
Neutrophils (absolute) (Before): 3.3 ± 0.5 ×10^3/μL
Neutrophils, % (Before): 45.3 ± 5.2%
Platelets (Before): 233.8 ± 14.2 ×10^3/μL
RBC (Before): 4.3 ± 0.1 ×10^6/µL
RDW (Before): 13.3 ± 0.2%
WBC (Before): 7.1 ± 0.4 ×10^3/μL
Basophils (absolute) % Change: −40.0%
Basophils, % - % Change: −40.0%
Eosinophils (absolute) % Change: 35.7%
Eosinophils, % - % Change: 30.0%
Hematocrit % Change: 2.9%
Hemoglobin % Change: 0.4%
Lymphocytes (absolute) % Change: 5.0%
Lymphocytes, % - % Change: 5.8%
MCH % Change: 0.3%
MCHC % Change: 0.1%
MCV % Change: 1.0%
Monocytes (absolute) % Change: 0.0%
Monocytes, % - % Change: 1.5%
Neutrophils (absolute) % Change: −12.1%
Neutrophils, % - % Change: −6.4%
Platelets % Change: 4.5%
RBC % Change: 0.1%
RDW % Change: 0.7%
WBC % Change: −3.5%

CC(C)(O)CC(=O)[O-].CC(C)(O)CC(=O)[O-].[Ca+2] [CaHMB, calcium β-hydroxy-β-methylbutryate, reference compound]
Basophils (absolute) (After (24 h)): 0.06 ± 0.02 ×10^3/μL
Basophils, % (After (24 h)): 0.8 ± 0.2%
Eosinophils (absolute) (After (24 h)): 0.2 ± 0.03 ×10^3/μL
Eosinophils, % (After (24 h)): 2.6 ± 0.4%
Hematocrit (After (24 h)): 38.3 ± 1.7%
Hemoglobin (After (24 h)): 13.3 ± 0.6 g/dL
Lymphocytes (absolute) (After (24 h)): 2.8 ± 0.3 ×10^3/μL
Lymphocytes, % (After (24 h)): 42.5 ± 3.5%
MCH (After (24 h)): 30.7 ± 0.6 pg
MCHC (After (24 h)): 34.7 ± 0.2 g/dL
MCV (After (24 h)): 88.5 ± 1.4 fL
Monocytes (absolute) (After (24 h)): 0.5 ± 0.1 ×10^3/μL
Monocytes, % (After (24 h)): 8.5 ± 1.5%
Neutrophils (absolute) (After (24 h)): 3.0 ± 0.2 ×10^3/μL
Neutrophils, % (After (24 h)): 45.6 ± 3.3%
Platelets (After (24 h)): 235.9 ± 10.9 ×10^3/μL
RBC (After (24 h)): 4.3 ± 0.2 ×10^6/µL
RDW (After (24 h)): 13.4 ± 0.1%
WBC (After (24 h)): 6.5 ± 0.3 ×10^3/μL
Basophils (absolute) (Before): 0.06 ± 0.02 ×10^3/μL
Basophils, % (Before): 0.6 ± 0.2%
Eosinophils (absolute) (Before): 0.2 ± 0.04 ×10^3/μL
Eosinophils, % (Before): 2.9 ± 0.5%
Hematocrit (Before): 38.1 ± 1.8%
Hemoglobin (Before): 13.2 ± 0.7 g/dL
Lymphocytes (absolute) (Before): 3.3 ± 0.3 ×10^3/μL
Lymphocytes, % (Before): 44.8 ± 3.2%
MCH (Before): 30.6 ± 0.5 pg
MCHC (Before): 34.7 ± 0.2 g/dL
MCV (Before): 88.4 ± 1.5 fL
Monocytes (absolute) (Before): 0.5 ± 0.1 ×10^3/μL
Monocytes, % (Before): 6.9 ± 0.9%
Neutrophils (absolute) (Before): 3.3 ± 0.3 ×10^3/μL
Neutrophils, % (Before): 44.9 ± 3.8%
Platelets (Before): 228.0 ± 17.6 ×10^3/μL
RBC (Before): 4.3 ± 0.2 ×10^6/µL
RDW (Before): 13.4 ± 0.2%
Basophils (absolute) % Change: 0.0%
Basophils, % - % Change: 20.0%
Eosinophils (absolute) % Change: −12.5%
Eosinophils, % - % Change: −8.7%
Hematocrit % Change: 0.7%
Hemoglobin % Change: 0.7%
Lymphocytes (absolute) % Change: −13.5%
Lymphocytes, % - % Change: −5.0%
MCH % Change: 0.2%
MCHC % Change: 0.0%
MCV % Change: 0.1%
Monocytes (absolute) % Change: 5.0%
Monocytes, % - % Change: 23.6%
Neutrophils (absolute) % Change: −9.9%
Neutrophils, % - % Change: 1.7%
Platelets % Change: 3.5%
RBC % Change: 0.7%
RDW % Change: −0.1%
WBC % Change: −10.5%

CC(C)(O)CC(=O)O [HMB-Acid Gel Swallow, 3-hydroxy-3-methylbutyric acid]
Basophils (absolute) (After (24 h)): 0.09 ± 0.03 ×10^3/μL
Basophils, % (After (24 h)): 0.9 ± 0.3%
Eosinophils (absolute) (After (24 h)): 0.2 ± 0.04 ×10^3/μL
Eosinophils, % (After (24 h)): 3.0 ± 0.5%
Hematocrit (After (24 h)): 38.9 ± 1.1%
Hemoglobin (After (24 h)): 13.4 ± 0.4 g/dL
Lymphocytes (absolute) (After (24 h)): 3.1 ± 0.3 ×10^3/μL
Lymphocytes, % (After (24 h)): 43.3 ± 3.9%
MCH (After (24 h)): 30.5 ± 0.6 pg
MCHC (After (24 h)): 34.5 ± 0.2 g/dL
MCV (After (24 h)): 88.6 ± 1.5 fL
Monocytes (absolute) (After (24 h)): 0.5 ± 0.04 ×10^3/μL
Monocytes, % (After (24 h)): 6.9 ± 0.8%
Neutrophils (absolute) (After (24 h)): 3.3 ± 0.4 ×10^3/μL
Neutrophils, % (After (24 h)): 46.0 ± 4.4%
Platelets (After (24 h)): 242.4 ± 12.2 ×10^3/μL
RBC (After (24 h)): 4.4 ± 0.1 ×10^6/µL
RDW (After (24 h)): 13.2 ± 0.2%
WBC (After (24 h)): 7.1 ± 0.3 ×10^3/μL
Basophils (absolute) (Before): 0.05 ± 0.02 ×10^3/μL
Basophils, % (Before): 0.5 ± 0.2%
Eosinophils (absolute) (Before): 0.2 ± 0.03 ×10^3/μL
Eosinophils, % (Before): 2.8 ± 0.5%
Hematocrit (Before): 37.4 ± 1.0%
Hemoglobin (Before): 13.0 ± 0.4 g/dL
Lymphocytes (absolute) (Before): 2.8 ± 0.2 ×10^3/μL
Lymphocytes, % (Before): 43.6 ± 2.4%
MCH (Before): 30.6 ± 0.6 pg
MCHC (Before): 34.8 ± 0.2 g/dL
MCV (Before): 88.1 ± 1.5 fL
Monocytes (absolute) (Before): 0.5 ± 0.1 ×10^3/μL
Monocytes, % (Before): 7.5 ± 1.1%
Neutrophils (absolute) (Before): 2.9 ± 0.2 ×10^3/μL
Neutrophils, % (Before): 45.6 ± 2.7%
Platelets (Before): 229.0 ± 12.9 ×10^3/μL
RBC (Before): 4.2 ± 0.1 ×10^6/µL
RDW (Before): 13.3 ± 0.2%
WBC (Before): 6.4 ± 0.3 ×10^3/μL
Basophils (absolute) % Change: 75.0%
Basophils, % - % Change: 75.0%
Eosinophils (absolute) % Change: 13.3%
Eosinophils, % - % Change: 9.1%
Hematocrit % Change: 4.2%
Hemoglobin % Change: 3.2%
Lymphocytes (absolute) % Change: 9.4%
Lymphocytes, % - % Change: −0.9%
MCH % Change: −0.3%
MCHC % Change: −0.8%
MCV % Change: 0.6%
Monocytes (absolute) % Change: 2.6%
Monocytes, % - % Change: −8.3%
Neutrophils (absolute) % Change: 10.6%
Neutrophils, % - % Change: 0.8%
Platelets % Change: 5.8%
RBC % Change: 3.5%
RDW % Change: −0.5%
WBC % Change: 9.7%

— US20210113501A1, “METHOD OF ADMINISTERING BETA-HYDROXY-BETA-METHYLBUTYRATE (HMB)” (Metabolic Technologies, Inc., priority 2009, published 2021)
